Values of other authors as cited in patent US20240057588A1, “HERBICIDAL FORMULATION IN THE FORM OF MICROEMULSION” (RED SURCOS COLOMBIA LTDA, priority 2018, published 2024).

Key:
[1] = qualitative

O=C1CCCCC1 [Cyclohexanone]
Solubility in water: slightly soluble | Solubility in organic solvents / other media [1]: soluble in most organic solvents

CN1CCCC1=O [N-Methylpyrrolidone]
Solubility in water: miscible | Solubility in organic solvents / other media [1]: Miscible

O=C(O)CNCP(=O)(O)O [glyphosate, reference compound]
Solubility in water: very low
